In patent US6800590B2, “2-Pyrimidinyloxy-n-aryl-benzylamine derivatives,their processes and uses” (Shanghai Institute of Organic Chemistry, priority 2003, dated 2004):

Tests used:
[1] = system: transplanted paddy seedlings; assay: Paddy safety, treatment on stem and leaves of transplanted paddy seedlings; type: in vivo; conditions: 150 g ai/ha, spray on stem and leaves of transplanted paddy seedlings at 4-5-leaves stage
Protocol: The 5-grade evaluation criteria by visual examination for weeding activity and crop safety (i.e. phytotoxicity) are listed in Table 2.
In pots (diameter of 12 cm) containing test soil, paddy seedlings of the given stage are transplanted and grown in the greenhouse at 20-30° C. After growing to 4-5-leaves stage, the spraying treatment on the stem and leaves of paddy seedlings is conducted in a dosage of 150 g ai/ha after diluting the formulation obtained according to Formulating Example 5 into a given concentration. The visual injury and growth state of the individual plants are observed in regular intervals. The evaluation for the crop safety of the compounds is conducted by 5-grade visual observation.

| melting point [°C] | SMILES | Effect on tillering [1] | Stunting [1] |
| --- | --- | --- | --- |
|  | COc1cc(OC)nc(Oc2ccccc2CNc2ccc(NC(=O)c3ccccc3)cc2)n1 [Compound I-102] | None | 10-15% |
| 96 to 97 | CCCNC(=O)c1ccc(NCc2ccccc2Oc2nc(OC)cc(OC)n2)cc1 [Compound I-78, n-propyl 4-[2-(4,6-dimethoxy-2-pyrimidinyloxy)-benzylamino]-benzamide] |  |  |
|  | COc1cc(OC)nc(Oc2ccccc2CNc2ccc(NC(=O)C(C)C)cc2)n1 [Compound I-101] | None | <10% |
| 83 to 84 | COc1cc(OC)nc(Oc2ccccc2CNc2ccc(C(=O)NC(C)C)cc2)n1 [Compound I-79, i-propyl 4-[2-(4,6-dimethoxy-2-pyrimidinyloxy)-benzylamino]benzamide] |  |  |
|  | COc1cc(OC)nc(Oc2ccccc2CNc2ccc(NC(=O)C(F)(F)F)cc2)n1 [Compound I-103] | None | 20-25% |
